Data from patent US8936807B2, “Use of the cathelicidin LL-37 and derivatives thereof for wound healing” (Lipopeptide AB, priority 2003, dated 2015).

How the values were obtained:
Format in all cases: cell-based, human
HaCat cells [1] = assay: Proliferation of HaCat cells assessed by flowcytometry and Trypan-Blue; conditions: EGF 1.7 nM, 10% serum
Protocol: HaCat cells were used for these experiments. HaCat cells are an immortalized human keratinocyte cell line (Boukamp et al., J Cell Biol 106:761-771, 1988), which is suitable for experimental keratinocyte research. HaCat cells were cultured in medium (DMEM, +10% FCS and PEST). Both types of cell cultures were treated with synthetic, bioactive LL-37 (lot YS 5253). […] Cells were harvested at different time-points (24 h, 48 h, 72 h and 96 h) and counted by flowcytometry (Becton-Dickinson) and stained by Trypan-Blue to evaluate viability. […] Proliferation and viability were also ascertained by measuring mitochondrial activity (WST-1, Roche, Cook et al. Anal Biochem 179:1-7, 1989).

HaCat cells [2] = assay: Proliferation and viability of HaCat cells measured by mitochondrial activity (WST-1); conditions: EGF 1.7 nM, 10% serum, 48 h
Protocol: HaCat cells were used for these experiments. HaCat cells are an immortalized human keratinocyte cell line (Boukamp et al., J Cell Biol 106:761-771, 1988), which is suitable for experimental keratinocyte research. HaCat cells were cultured in medium (DMEM, +10% FCS and PEST). Both types of cell cultures were treated with synthetic, bioactive LL-37 (lot YS 5253). In addition a mixture of LL-37 (114 μg/ml) and CPL-Galactolipid (0.2%) in medium containing serum at either 2 or 10% was added to evaluate the capacity to increase proliferation and inhibit cytotoxicity. Cells were harvested at different time-points (24 h, 48 h, 72 h and 96 h) and counted by flowcytometry (Becton-Dickinson) and stained by Trypan-Blue to evaluate viability. […] Proliferation and viability were also ascertained by measuring mitochondrial activity (WST-1, Roche, Cook et al. Anal Biochem 179:1-7, 1989).

HaCat cells [3] = assay: Proliferation of HaCat cells assessed by 3H-Thymidine incorporation; conditions: 10% serum, 96 Hours; for Increased Proliferation (%): vs control 0 μg/ml
Protocol: HaCat cells were cultured in medium (DMEM, +10% FCS and PEST). HaCaT cells were plated in 96 well plates (Falcon, USA) at the concentration of 2000 cells per well. Cells were plated at −48 hours and stimulated with different concen-trations of synthetic LL-37, LL-36, and LL-38 peptide by hour 0 and after 48 hours.
The testing was done in one experiment with 6 wells in each condition. […] of ^3H-Thymidine (THYMIDINE, [METHYL-^3H]-740.0 GBq/mmol (20.00 Ci/mmol) 1.0 ml of Ethanol:Water, 7:3, Perkin Elmer Life Sciences Inc. Boston Mass., USA) was added to each well and incubated for 12-17 hours. Proliferation was evaluated by ^3H-Thymidine incorporation a liquid scintilator (MicroBeta Perkin Elmer Life Sciences Inc. Boston Mass., USA) after 72 and 96 hours.

With “EGF: EGF, the golden standard for epithelial cell proliferation, used at 1.7 nM [reference compound]” the “Number of Cells (Mean)” value (HaCat cells [1]; 96 h) was 42000, the “Increased Proliferation (%)” value (HaCat cells [1]; 96 h, vs baseline (-EGF)) was 30% and the “Number of Cells (Mean)” value (HaCat cells [1]; no lipid, 72 h) was 85050. For the same substance, the “Increased Proliferation (%)” value (HaCat cells [1]; no lipid, 72 h, vs baseline) was 54%, the “Number of Cells (Mean)” value (HaCat cells [1]; with lipid 0.2%, 72 h) was 87640 and the “Increased Proliferation (%)” value (HaCat cells [1]; with lipid 0.2%, 72 h, vs baseline) was 58%. For the same substance, the Absorbance (HaCat cells [2]) was 1.107 and the “Increased Proliferation (%)” value (HaCat cells [2]; vs baseline (-EGF)) was 77%.

For “LLGDFFRKSKEKIGKEFKRIVQRIKDFLRNLVPRTE (Synthetic Peptide LL-36)”, the “Counts Per Minute (Mean)” value (HaCat cells [3]; LL-36 1.00 μg/ml) was 86253 Counts Per Minute, the “Increased Proliferation (%)” value (HaCat cells [3]; LL-36 1.00 μg/ml) was 24% and the “Counts Per Minute (Mean)” value (HaCat cells [3]; LL-36 5.00 μg/ml) was 116381 Counts Per Minute. The “Increased Proliferation (%)” value (HaCat cells [3]; LL-36 5.00 μg/ml) was 68%, the “Counts Per Minute (Mean)” value (HaCat cells [3]; LL-36 10.00 μg/ml) was 70157 Counts Per Minute and the “Increased Proliferation (%)” value (HaCat cells [3]; LL-36 10.00 μg/ml) was 1%. The “Counts Per Minute (Mean)” value (HaCat cells [3]; LL-36 25.00 μg/ml) was 72674 Counts Per Minute, the “Increased Proliferation (%)” value (HaCat cells [3]; LL-36 25.00 μg/ml) was 5% and the “Counts Per Minute (Mean)” value (HaCat cells [3]; LL-36 50.00 μg/ml) was 68560 Counts Per Minute. For the same substance, the “Increased Proliferation (%)” value (HaCat cells [3]; LL-36 50.00 μg/ml) was -1%.

In the case of “LLGDFFRKSKEKIGKEFKRIVQRIKDFLRNLVPRTESS (Synthetic Peptide LL-38)”, the “Counts Per Minute (Mean)” value (HaCat cells [3]; LL-38 1.00 μg/ml) is reported as 82008 Counts Per Minute, the “Increased Proliferation (%)” value (HaCat cells [3]; LL-38 1.00 μg/ml) is reported as 4% and the “Counts Per Minute (Mean)” value (HaCat cells [3]; LL-38 5.00 μg/ml) is reported as 68694 Counts Per Minute. For the same substance, the “Increased Proliferation (%)” value (HaCat cells [3]; LL-38 5.00 μg/ml) was −13%, the “Counts Per Minute (Mean)” value (HaCat cells [3]; LL-38 10.00 μg/ml) was 57293 Counts Per Minute and the “Increased Proliferation (%)” value (HaCat cells [3]; LL-38 10.00 μg/ml) was −28%. For the same substance, the “Counts Per Minute (Mean)” value (HaCat cells [3]; LL-38 25.00 μg/ml) was 54294 Counts Per Minute, the “Increased Proliferation (%)” value (HaCat cells [3]; LL-38 25.00 μg/ml) was −31% and the “Counts Per Minute (Mean)” value (HaCat cells [3]; LL-38 50.00 μg/ml) was 48701 Counts Per Minute. For the same substance, the “Increased Proliferation (%)” value (HaCat cells [3]; LL-38 50.00 μg/ml) was −39%.
